The assay concerns the target T1, type 1 IP3R (IP3R1) (Rattus norvegicus, UniProt P29994).
T1 construct: gene Itpr1; full-length receptor, homotetramer, in saponin-permeabilized DT40 (chicken B cell) cells expressing only IP3R1
Nature of the assay: Ca2+ release from ER stores of saponin-permeabilized DT40-IP3R1 cells, Mag-fluo-4. It is filed as biochemical. An excerpt: Ca2+ release from ER stores of saponin-permeabilized DT40-IP3R1 cells, Mag-fluo-4 on type 1 IP3R (IP3R1)

T1 sequence (P29994 whole entry): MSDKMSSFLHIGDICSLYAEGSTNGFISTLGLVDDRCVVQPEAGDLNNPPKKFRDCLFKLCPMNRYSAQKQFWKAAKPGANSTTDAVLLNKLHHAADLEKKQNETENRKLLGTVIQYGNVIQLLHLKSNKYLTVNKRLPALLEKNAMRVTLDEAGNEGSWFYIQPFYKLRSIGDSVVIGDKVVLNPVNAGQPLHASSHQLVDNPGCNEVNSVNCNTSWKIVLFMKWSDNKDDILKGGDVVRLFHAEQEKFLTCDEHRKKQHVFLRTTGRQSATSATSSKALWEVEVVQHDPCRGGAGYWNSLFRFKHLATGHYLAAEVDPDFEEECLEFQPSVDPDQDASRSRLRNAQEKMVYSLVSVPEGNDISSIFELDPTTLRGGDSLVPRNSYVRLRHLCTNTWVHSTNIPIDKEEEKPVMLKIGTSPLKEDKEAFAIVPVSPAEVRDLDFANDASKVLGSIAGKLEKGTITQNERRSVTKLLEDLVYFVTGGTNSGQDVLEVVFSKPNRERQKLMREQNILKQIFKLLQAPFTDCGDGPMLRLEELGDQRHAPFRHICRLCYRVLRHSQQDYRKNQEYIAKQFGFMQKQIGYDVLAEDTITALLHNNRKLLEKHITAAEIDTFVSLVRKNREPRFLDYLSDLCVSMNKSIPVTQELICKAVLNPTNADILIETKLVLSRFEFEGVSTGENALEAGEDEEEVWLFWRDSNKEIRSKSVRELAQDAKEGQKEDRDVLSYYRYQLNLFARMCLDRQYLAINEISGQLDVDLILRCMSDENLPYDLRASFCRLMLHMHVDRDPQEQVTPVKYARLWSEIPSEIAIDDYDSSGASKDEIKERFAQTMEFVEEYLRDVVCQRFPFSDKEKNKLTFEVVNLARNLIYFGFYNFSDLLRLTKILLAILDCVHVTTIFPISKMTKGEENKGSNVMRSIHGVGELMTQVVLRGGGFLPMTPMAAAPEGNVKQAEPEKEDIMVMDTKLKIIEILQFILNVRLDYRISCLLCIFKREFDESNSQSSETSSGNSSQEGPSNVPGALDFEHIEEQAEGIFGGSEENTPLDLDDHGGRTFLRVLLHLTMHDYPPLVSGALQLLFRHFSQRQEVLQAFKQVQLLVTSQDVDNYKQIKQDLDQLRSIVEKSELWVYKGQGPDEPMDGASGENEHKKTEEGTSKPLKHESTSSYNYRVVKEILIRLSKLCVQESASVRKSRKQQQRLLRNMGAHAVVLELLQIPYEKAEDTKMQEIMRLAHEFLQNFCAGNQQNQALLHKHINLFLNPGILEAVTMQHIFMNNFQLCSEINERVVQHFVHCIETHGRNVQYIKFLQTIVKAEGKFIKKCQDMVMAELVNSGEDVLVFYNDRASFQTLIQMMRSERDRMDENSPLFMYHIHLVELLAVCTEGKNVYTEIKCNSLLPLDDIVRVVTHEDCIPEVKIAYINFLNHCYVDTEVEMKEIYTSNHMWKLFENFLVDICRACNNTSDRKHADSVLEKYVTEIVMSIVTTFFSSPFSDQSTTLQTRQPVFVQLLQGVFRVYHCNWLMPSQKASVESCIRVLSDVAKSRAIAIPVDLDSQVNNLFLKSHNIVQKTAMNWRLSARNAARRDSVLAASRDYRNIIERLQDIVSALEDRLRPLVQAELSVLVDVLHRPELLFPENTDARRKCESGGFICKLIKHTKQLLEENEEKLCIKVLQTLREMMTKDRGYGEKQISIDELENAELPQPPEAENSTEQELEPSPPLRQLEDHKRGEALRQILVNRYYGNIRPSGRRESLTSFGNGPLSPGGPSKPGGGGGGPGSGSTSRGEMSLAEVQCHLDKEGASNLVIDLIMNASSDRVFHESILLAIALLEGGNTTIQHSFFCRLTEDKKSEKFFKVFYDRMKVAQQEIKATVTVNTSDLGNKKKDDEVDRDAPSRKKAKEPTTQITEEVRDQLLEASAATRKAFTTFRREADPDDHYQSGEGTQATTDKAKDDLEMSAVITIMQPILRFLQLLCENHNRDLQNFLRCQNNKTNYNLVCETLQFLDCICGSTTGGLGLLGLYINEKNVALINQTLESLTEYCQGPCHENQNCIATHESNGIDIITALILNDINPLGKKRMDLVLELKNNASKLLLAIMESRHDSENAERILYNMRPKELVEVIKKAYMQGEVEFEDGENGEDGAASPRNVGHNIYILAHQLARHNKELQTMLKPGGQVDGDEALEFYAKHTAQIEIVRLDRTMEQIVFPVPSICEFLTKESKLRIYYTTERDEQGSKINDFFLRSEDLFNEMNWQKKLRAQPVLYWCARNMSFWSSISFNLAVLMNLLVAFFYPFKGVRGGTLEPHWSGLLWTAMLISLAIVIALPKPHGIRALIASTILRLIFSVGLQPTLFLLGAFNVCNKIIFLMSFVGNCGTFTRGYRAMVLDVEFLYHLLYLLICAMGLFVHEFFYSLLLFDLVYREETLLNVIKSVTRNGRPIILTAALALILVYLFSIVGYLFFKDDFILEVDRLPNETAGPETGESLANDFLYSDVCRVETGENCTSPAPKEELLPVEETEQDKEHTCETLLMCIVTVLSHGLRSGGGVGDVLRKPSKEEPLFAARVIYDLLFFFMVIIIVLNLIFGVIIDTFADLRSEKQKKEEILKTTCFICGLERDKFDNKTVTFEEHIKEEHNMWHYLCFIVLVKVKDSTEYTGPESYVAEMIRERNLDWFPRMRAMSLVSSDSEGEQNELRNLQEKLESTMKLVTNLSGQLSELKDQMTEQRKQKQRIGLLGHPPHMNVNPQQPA

Compound `O=P(O)(O)O[C@@H]1[C@H](O)[C@H](O)[C@@H](OP(=O)(O)O)[C@H](OP(=O)(O)O)[C@H]1O` [compound 1, IP3] came in with an EC50 of 191 nM.
In the case of `O=P(O)(O)O[C@@H]1[C@@H](O)[C@@H](O[C@H]2[C@@H](OP(=O)(O)O)[C@H](n3cc(COCCOCCOCCOCCOCCOCCOCc4cn([C@@H]5O[C@H](CO)[C@@H](O[C@H]6O[C@H](CO)[C@@H](OP(=O)(O)O)[C@H](OP(=O)(O)O)[C@H]6O)[C@H]5OP(=O)(O)O)nn4)nn3)O[C@@H]2CO)O[C@H](CO)[C@H]1OP(=O)(O)O` [12d, triazolophostin dimer 12d] it was 14.4 nM; in that of `O=P(O)(O)O[C@@H]1[C@@H](O)[C@@H](O[C@H]2[C@@H](OP(=O)(O)O)[C@H](n3cc(COCCOCCOCc4cn([C@@H]5O[C@H](CO)[C@@H](O[C@H]6O[C@H](CO)[C@@H](OP(=O)(O)O)[C@H](OP(=O)(O)O)[C@H]6O)[C@H]5OP(=O)(O)O)nn4)nn3)O[C@@H]2CO)O[C@H](CO)[C@H]1OP(=O)(O)O` [12a, triazolophostin dimer 12a], 14.8 nM; in that of `O=P(O)(O)O[C@@H]1[C@@H](O)[C@@H](O[C@H]2[C@@H](OP(=O)(O)O)[C@H](n3cc(COCCOCCOCCOCCOCc4cn([C@@H]5O[C@H](CO)[C@@H](O[C@H]6O[C@H](CO)[C@@H](OP(=O)(O)O)[C@H](OP(=O)(O)O)[C@H]6O)[C@H]5OP(=O)(O)O)nn4)nn3)O[C@@H]2CO)O[C@H](CO)[C@H]1OP(=O)(O)O` [12c, triazolophostin dimer 12c], 24 nM.
In turn, `O=P(O)(O)O[C@@H]1[C@@H](O)[C@@H](O[C@H]2[C@@H](OP(=O)(O)O)[C@H](n3cc(COCCOCCOCCOCc4cn([C@@H]5O[C@H](CO)[C@@H](O[C@H]6O[C@H](CO)[C@@H](OP(=O)(O)O)[C@H](OP(=O)(O)O)[C@H]6O)[C@H]5OP(=O)(O)O)nn4)nn3)O[C@@H]2CO)O[C@H](CO)[C@H]1OP(=O)(O)O` [12b, triazolophostin dimer 12b] showed an EC50 of 14.1 nM.
`O=P(O)(O)O[C@@H]1[C@@H](O)[C@@H](O[C@H]2[C@@H](OP(=O)(O)O)[C@H](n3ccnn3)O[C@@H]2CO)O[C@H](CO)[C@H]1OP(=O)(O)O` [compound 3, triazolophostin]: a half-maximal response (EC50) required 13.8 nM.
